According to paper PMC8300687, “A Fine-Tuned Lipophilicity/Hydrophilicity Ratio Governs Antibacterial Potency and Selectivity of Bifurcated Halogen Bond-Forming NBTIs” (Antibiotics, 2021):
Converted amounts (≈) assume the structure as drawn. Like-named read-outs stand apart in the source and are kept apart here.

Experiments:
S. aureus DNA gyrase = target: T1, S. aureus DNA gyrase (Staphylococcus aureus, UniProt P20831); experiment: biochemical; format: biochemical; conditions: for LE DNA Gyrase S. aureus: LE = (1.37/HA) × pIC50; for IC50: fluorescence plate supercoiling assay, mean of two to four measurements
T1 construct: purchased Inspiralis (Norwich, UK)
Description: (§1) A Gyrase Supercoiling High Throughput Plate assay kit, purchased from Inspiralis (Norwich. UK) was used to determine IC50 values of compounds on S. aureus and E. coli. […] Biotinylated oligonucleotide in wash buffer was immobilized onto the wells, and the excess oligonucleotide was washed off with wash buffer and ultrapure water. […] The reactions were stopped by adding the TF buffer (50 mM NaOAc (pH 4.7), 50 mM NaCl, and 50 mM MgCl2) to allow the triplex formation (biotin-oligonucleotide-plasmid) for additional 30 min. Afterward, the unbound plasmid was washed off using TF buffer, and the solution of Promega Diamond dye in T10 buffer (10 mM Tris-HCl (pH 8.0), 1 mM EDTA) was added. […] IC50 value represents the mean of two to four independent measurements.

M. smegmatis = experiment: MIC, M. smegmatis; format: cell-based, Mycobacterium smegmatis
Description: (§2) Antimicrobial testing was carried out by the broth microdilution method in 96-well plate format following the Clinical and Laboratory Standards Institute (CLSI) guidelines and European Committee on Antimicrobial Susceptibility Testing (EUCAST) recommendations. Bacterial suspension of specific bacterial strain equivalent to 0.5 McFarland turbidity standard was diluted with cation-adjusted Mueller Hinton broth with TES (Thermo Fisher Diagnostic, Landsmeer, The Netherlands), to obtain a final inoculum of 10^5 CFU/mL. Compounds dissolved in DMSO and inoculum were mixed together and incubated for 18–20 h at 35 °C. Suspensions of Mycobacterium sp. were prepared into a tube of Middelbrook 7H9 broth supplemented with 5% OADC (Thermo Scientific, Trek Diagnostic Systems, West Sussex, UK) and incubated for at least 10 days. After incubation the minimal inhibitory concentration (MIC) values were determined by visual inspection as the lowest dilution of compounds showing no turbidity. Tetracycline was used as a positive control on every assay plate.

in vitro = conditions: for Papp at 4 h: PAMPA
Description: (§3) Prior to the measurements of solubility and permeability isocratic HPLC methods were developed. […] The individual method parameters for each compound are given in the Supplementary Materials Table S1.
A 96-well precoated three-layer PAMPA plates (Corning® Gentest™ Pre-coated PAMPA Plate System, Corning, NY, USA) were used according to the manufacturer’s instructions and as described previously with 300 µL of the donor solutions in the bottom compartment and 200 µL of the acceptor solution (pH 7.4 PBS) in the upper compartment at 37 °C and a 4-h incubation time. The initial and end donor solutions were injected at a 5 µL injection volume. The initial donor solutions were also diluted 100-fold and injected at a 100 µL injection volume to serve as external references for the end acceptor solutions which were injected at the same injection volume. The permeability calculations were made with a manufacturer-provided Excel spreadsheet directly from the measured peak areas accounting for the relevant dilutions and injection volumes.

E. coli D22 = experiment: MIC broth microdilution, E. coli D22; format: cell-based; conditions: Escherichia coli
Description: as §2

E. coli (QA-11.7) = experiment: MIC broth microdilution, E. coli QA-11.7; format: cell-based; conditions: Escherichia coli, 20 h, read-out: MIC E. coli (QA-11.7)
Description: as §2

MRSA (QA-11.6) = experiment: MIC broth microdilution, MRSA QA-11.6; format: cell-based, methicillin-resistant S. aureus; conditions: Staphylococcus aureus, read-out: MIC MRSA (QA-11.6)
Description: as §2

E. coli DNA gyrase = target: T2, E. coli DNA gyrase (Escherichia coli, UniProt P0AES4); experiment: Gyrase Supercoiling High Throughput Plate assay, E. coli; format: biochemical; conditions: for LE DNA Gyrase E. coli: LE = (1.37/HA) × pIC50
T2 construct: purchased Inspiralis (Norwich, UK)
Description: as §1

E. coli Topo IV = target: T3, E. coli Topo IV (Escherichia coli, UniProt P0AFI2); experiment: Topo IV Relaxation High Throughput Plate assay, E. coli; format: biochemical; conditions: for LE Topo IV E. coli: LE = (1.37/HA) × pIC50
T3 construct: purchased Inspiralis (Norwich, UK)
Description: (§4) A Topo IV Relaxation High Throughput Plate assay kit, purchased from Inspiralis (Norwich. UK) was used to determine IC50 values of compounds on S. aureus and E. coli. […] Biotinylated oligonucleotide in wash buffer was immobilized onto the wells, and the excess oligonucleotide was washed off with wash buffer and ultrapure water. 1.5 U of S. aureus or E. coli […] enzyme was incubated together with 0.75 μg of supercoiled pNO1 plasmid as a substrate in the presence of 3 μL inhibitor solution in 10% DMSO and 0.008% Tween 20 at 37 °C for 30 min in a final reaction volume of 30 μL in dilution buffer (50 mM Tris-HCl (pH 7.5), 1 mM DTT, 1 mM EDTA, 40% (w/v) glycerol for S. aureus and 40 mM HEPES, KOH (pH 7.6), 100 mM potassium glutamate, 1 mM DTT, 1 mM EDTA, and 40% (v/v) glycerol for E. coli). The reactions were stopped by adding the TF buffer (50 mM NaOAc (pH 4.7), 50 mM NaCl, and 50 mM MgCl2) to allow the triplex formation (biotin-oligonucleotide-plasmid) for additional 30 min. Afterward, the unbound plasmid was washed off using TF buffer, and the solution of Promega Diamond dye in T10 buffer (10 mM Tris-HCl (pH 8.0), 1 mM EDTA) was added. […] IC50 value represents the mean of two to four independent measurements.

[1] = Equilibrium solubility at pH 6.8; conditions: phosphate buffered saline, 37 °C, pH 6.8, aqueous buffer, thermodynamic from solid
Description: as §3
The vials were then placed in a homogenizer (Next Advance Bullet Blender, Troy, NY, USA) for 5 min ad speed setting “2” after which they were kept in a thermostated shaker (Tehtnica HeatMix, Domel, Slovenia) at 37 °C and 1200 RPM for 24 h. […] Twenty µL of these solutions were injected for the HPLC analysis by the described methods (Supplementary Materials Table S1). External standards for calibration were made in a mobile phase with 5% acetonitrile in a range of 30–90 mg/L and injected at 20 µL injection volumes.

E. coli N43 (CGSC# 5583) = experiment: MIC broth microdilution, E. coli N43; format: cell-based; conditions: for MIC: Escherichia coli
Description: as §2

[2] = tested on: C. jejuni RDK 135 (ATCC 33560); experiment: MIC broth microdilution, C. jejuni; format: cell-based
Description: as §2

S. aureus Topo IV = target: T4, S. aureus Topo IV (Staphylococcus aureus, UniProt Q2FYS4); experiment: biochemical; conditions: for IC50: mean of two to four measurements, read-out: Topoisomerase IV IC50 S. aureus
T4 construct: purchased Inspiralis (Norwich, UK)
Description: as §4

[3] = Mycolicibacterium smegmatis; read-out: MIC M. smegmatis
[4] = D22, mutation in the lpxC gene that increases membrane permeability, read-out: MIC E. coli D22
[5] = multi-resistant isolate (ampicillin, azithromycin, cefotaxime, ertapenem, imipenem and others)
[6] = resistant to cefoxitin, gentamicin, sulfamethoxazole, tetracycline
[7] = read-out: E. coli N43 MIC in molar
[8] = read-out: MIC E. coli N43 (CGSC# 5583)
[9] = Campylobacter jejuni, ATCC33560; read-out: MIC C. jejuni RDK 135 (ATCC 33560)
[10] = Campylobacter jejuni, ATCC33560, read-out: MIC C. jejuni RDK 135 (ATCC 33560)
[11] = mean of two to four measurements, read-out: Topoisomerase IV IC50 E. coli

T4 sequence (Q2FYS5 whole entry): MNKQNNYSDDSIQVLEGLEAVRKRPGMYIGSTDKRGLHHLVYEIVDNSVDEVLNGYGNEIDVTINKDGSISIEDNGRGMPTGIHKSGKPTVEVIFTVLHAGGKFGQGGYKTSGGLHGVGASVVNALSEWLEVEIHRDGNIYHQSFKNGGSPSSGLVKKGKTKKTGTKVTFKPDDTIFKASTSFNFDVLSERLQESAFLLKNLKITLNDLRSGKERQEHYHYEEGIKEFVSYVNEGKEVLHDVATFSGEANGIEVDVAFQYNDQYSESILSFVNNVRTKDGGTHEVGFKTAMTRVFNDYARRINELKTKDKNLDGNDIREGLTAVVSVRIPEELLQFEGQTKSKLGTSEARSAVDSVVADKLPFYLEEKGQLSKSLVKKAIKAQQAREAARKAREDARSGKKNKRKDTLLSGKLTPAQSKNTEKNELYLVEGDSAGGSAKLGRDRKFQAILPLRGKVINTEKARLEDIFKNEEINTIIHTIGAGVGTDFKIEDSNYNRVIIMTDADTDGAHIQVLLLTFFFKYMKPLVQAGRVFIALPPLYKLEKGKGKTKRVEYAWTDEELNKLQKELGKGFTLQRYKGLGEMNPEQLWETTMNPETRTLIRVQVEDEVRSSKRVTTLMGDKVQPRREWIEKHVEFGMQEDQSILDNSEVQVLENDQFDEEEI
T4 sequence (Q2FYS4 whole entry): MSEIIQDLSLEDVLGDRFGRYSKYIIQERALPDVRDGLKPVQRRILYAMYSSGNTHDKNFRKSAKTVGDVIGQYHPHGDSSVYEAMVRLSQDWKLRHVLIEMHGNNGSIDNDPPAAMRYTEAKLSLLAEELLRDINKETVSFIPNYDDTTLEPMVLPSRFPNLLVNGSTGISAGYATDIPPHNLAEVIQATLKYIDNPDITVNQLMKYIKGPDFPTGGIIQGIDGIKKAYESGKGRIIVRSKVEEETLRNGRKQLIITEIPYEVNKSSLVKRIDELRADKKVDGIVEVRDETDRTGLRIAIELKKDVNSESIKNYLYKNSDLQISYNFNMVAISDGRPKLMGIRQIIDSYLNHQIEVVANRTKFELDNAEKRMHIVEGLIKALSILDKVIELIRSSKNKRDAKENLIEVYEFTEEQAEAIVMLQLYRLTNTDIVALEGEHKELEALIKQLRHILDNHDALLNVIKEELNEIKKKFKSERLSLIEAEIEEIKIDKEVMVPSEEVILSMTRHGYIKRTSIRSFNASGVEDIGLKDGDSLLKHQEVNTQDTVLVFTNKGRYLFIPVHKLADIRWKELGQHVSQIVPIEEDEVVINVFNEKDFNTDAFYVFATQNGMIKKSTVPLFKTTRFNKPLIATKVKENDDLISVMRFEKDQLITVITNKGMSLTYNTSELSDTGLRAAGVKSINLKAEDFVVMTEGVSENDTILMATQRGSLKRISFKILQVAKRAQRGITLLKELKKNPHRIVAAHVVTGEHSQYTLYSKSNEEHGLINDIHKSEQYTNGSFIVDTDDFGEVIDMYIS
T3 sequence (P0AFI2 whole entry): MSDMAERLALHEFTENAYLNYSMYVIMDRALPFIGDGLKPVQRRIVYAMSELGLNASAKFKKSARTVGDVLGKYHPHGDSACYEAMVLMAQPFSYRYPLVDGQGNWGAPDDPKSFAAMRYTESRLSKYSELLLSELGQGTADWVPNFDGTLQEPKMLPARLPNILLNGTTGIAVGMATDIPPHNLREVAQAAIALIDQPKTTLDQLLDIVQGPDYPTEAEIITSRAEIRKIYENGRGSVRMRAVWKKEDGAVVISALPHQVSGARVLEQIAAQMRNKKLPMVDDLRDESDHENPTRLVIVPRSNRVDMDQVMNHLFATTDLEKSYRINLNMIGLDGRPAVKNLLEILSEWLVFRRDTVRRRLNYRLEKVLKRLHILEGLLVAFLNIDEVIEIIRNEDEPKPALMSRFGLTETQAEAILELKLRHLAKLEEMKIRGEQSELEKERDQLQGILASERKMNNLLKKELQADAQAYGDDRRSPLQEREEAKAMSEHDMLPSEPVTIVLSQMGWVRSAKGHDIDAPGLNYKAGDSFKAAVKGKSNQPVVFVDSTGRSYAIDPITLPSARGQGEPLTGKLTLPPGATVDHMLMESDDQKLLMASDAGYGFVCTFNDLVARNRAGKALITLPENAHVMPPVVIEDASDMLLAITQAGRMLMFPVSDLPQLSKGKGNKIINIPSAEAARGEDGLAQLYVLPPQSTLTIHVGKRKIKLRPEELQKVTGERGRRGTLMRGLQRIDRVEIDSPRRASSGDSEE
T3 sequence (P20083 whole entry, further chain): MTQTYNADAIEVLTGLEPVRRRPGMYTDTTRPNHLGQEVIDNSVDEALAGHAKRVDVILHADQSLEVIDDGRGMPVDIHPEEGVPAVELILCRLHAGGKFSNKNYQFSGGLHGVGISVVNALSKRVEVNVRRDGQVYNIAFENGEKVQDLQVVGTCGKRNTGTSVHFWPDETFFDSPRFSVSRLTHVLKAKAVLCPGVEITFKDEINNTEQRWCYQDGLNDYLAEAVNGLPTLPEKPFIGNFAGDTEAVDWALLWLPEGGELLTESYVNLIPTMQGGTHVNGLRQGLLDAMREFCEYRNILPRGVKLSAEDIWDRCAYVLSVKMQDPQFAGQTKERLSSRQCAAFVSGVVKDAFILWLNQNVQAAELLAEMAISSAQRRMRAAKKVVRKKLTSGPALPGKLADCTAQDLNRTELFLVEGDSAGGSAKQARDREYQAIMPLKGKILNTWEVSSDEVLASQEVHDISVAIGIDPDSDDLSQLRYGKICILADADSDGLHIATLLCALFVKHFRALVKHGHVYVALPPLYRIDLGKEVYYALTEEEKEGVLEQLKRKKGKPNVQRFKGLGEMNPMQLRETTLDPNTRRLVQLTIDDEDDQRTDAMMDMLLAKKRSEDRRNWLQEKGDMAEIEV
T2 sequence (P0AES4 whole entry): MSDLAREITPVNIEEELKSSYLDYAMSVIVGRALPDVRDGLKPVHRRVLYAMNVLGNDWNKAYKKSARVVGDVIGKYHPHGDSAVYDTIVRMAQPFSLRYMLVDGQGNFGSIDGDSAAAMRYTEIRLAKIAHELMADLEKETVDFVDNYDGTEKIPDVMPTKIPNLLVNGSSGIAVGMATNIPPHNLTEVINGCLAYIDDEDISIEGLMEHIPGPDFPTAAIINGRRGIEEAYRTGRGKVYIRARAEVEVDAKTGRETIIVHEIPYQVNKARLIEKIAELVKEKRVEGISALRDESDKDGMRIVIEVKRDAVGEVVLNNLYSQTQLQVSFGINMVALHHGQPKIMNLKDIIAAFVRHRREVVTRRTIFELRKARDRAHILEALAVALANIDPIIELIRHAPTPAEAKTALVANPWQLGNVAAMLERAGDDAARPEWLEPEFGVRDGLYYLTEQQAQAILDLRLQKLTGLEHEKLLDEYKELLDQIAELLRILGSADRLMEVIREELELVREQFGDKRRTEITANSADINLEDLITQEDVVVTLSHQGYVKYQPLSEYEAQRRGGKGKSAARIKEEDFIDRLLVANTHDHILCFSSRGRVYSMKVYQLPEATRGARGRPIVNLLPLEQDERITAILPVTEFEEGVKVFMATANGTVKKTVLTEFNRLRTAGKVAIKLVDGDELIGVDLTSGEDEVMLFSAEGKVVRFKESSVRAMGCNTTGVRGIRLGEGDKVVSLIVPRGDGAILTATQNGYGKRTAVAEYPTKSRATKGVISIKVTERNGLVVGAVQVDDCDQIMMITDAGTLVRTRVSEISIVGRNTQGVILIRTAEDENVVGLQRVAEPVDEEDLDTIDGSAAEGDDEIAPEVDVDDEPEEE

Row | SMILES | LE DNA Gyrase S. aureus (S. aureus DNA gyrase) | IC50 (S. aureus DNA gyrase) [µM] | MIC (M. smegmatis; [3]) [µg/mL] | Papp at 4 h (in vitro) [×10⁻⁶ cm/s] | Papp at 4 h (in vitro; pH 7.4) [×10⁻⁶ cm/s] | MIC (E. coli D22; [4]) [µg/mL] | MIC (E. coli (QA-11.7); [5]) [µg/mL] | MIC (MRSA (QA-11.6); [6]) [µg/mL] | IC50 (E. coli DNA gyrase) [µM] | IC50 (E. coli Topo IV) [µM] | LE Topo IV E. coli (E. coli Topo IV) | solubility thermodynamic at 24 h [1] [µg/mL] | MIC (E. coli N43 (CGSC# 5583); [7]) [µM] | MIC (E. coli N43 (CGSC# 5583); [8]) [µg/mL] | MIC [2, 9] [µg/mL] | IC50 (S. aureus Topo IV) [µM] | MIC (E. coli D22; D22, read-out: MIC E. coli D22) [µg/mL] | IC50 (E. coli Topo IV; [11]) [µM] | other results
1 | COc1ccc2nccc(CCN3CCC(NCc4nc5ccccc5n4C)CC3)c2n1 [Compound 3, 1-(2-(6-Methoxy-1,5-naphthyridin-4-yl)ethyl)-N-((1-methyl-1H-benzo[d]imidazol-2-yl)methyl)piperidin-4-amine] | 0.25 | 1.6 ± 0.35 | 4 (≈ 9.29 µM) | > 2.7 | 5.4 | > 128 | 64 (≈ 149 µM) | 2 (≈ 4.65 µM) | > 100 | 1.18 ± 0.09 | 0.25 | 349 (≈ 811 µM) | 37.2 | 16 | 1 (≈ 2.32 µM) | > 100 | – | – | –
2 | COc1ccc2nccc(CCN3CCC(NCc4cnn(-c5ccc(F)cc5)c4)CC3)c2n1 [Compound 4, N-((1-(4-Fluorophenyl)-1H-pyrazol-4-yl)methyl)-1-(2-(6-methoxy-1,5-naphthyridin-4-yl)ethyl)piperidin-4-amine] | 0.25 | 0.51 ± 0.25 | ≤ 1 | > 2.7 | 14.2 | 16 (≈ 34.7 µM) | 16 (≈ 34.7 µM) | 4 (≈ 8.69 µM) | 13.3 ± 2.84 | 0.12 ± 0.01 | 0.28 | 585 (≈ 1270 µM) | 4.34 | 2 | 128 (≈ 278 µM) | > 100 | – | – | LE DNA Gyrase E. coli (E. coli DNA gyrase): 0.20
3 | COc1ccc2nccc(CCN3CCC(NCc4cnn(-c5ccccc5)c4)CC3)c2n1 [Compound 5, 1-(2-(6-Methoxy-1,5-naphthyridin-4-yl)ethyl)-N-((1-phenyl-1H-pyrazol-4-yl)methyl)piperidin-4-amine] | 0.27 | 0.33 ± 0.08 | 0.25 (≈ 0.565 µM) | > 2.7 | 25.5 | 1 (≈ 2.26 µM) | 2 (≈ 4.52 µM) | 1 (≈ 2.26 µM) | 3 ± 0.55 | 0.085 ± 0.002 | 0.29 | 381 (≈ 861 µM) | 2.26 | 1 | 16 (≈ 36.2 µM) | 29.6 ± 0.54 | – | – | improvement in S. aureus gyrase IC50 compared to its predecessor (S. aureus DNA gyrase; vs methoxy-quinoline cyclohexyl-amide predecessor): 2.5 fold; LE DNA Gyrase E. coli (E. coli DNA gyrase): 0.23; increase in potency on E. coli DNA gyrase (E. coli DNA gyrase; vs most potent compound from previous study [18]): Approximately 4 fold; LE Topo IV S. aureus (S. aureus Topo IV; LE = (1.37/HA) × pIC50): 0.19
4 | COc1ccc2nccc(CCN3CCC(NCc4c(C)nc5c(C)cccn45)CC3)c2n1 [Compound 6, N-((2,8-Dimethylimidazo[1,2-a]pyridin-3-yl)methyl)-1-(2-(6-methoxy-1,5-naphthyridin-4-yl)ethyl)piperidin-4-amine] | – | > 100 | 64 (≈ 144 µM) | > 2.7 | 5.6 | – | – | – | > 100 | > 100 | – | 797 (≈ 1790 µM) | 288 | 128 | – | > 100 | > 128 | – | MIC (E. coli (QA-11.7)): > 128 µg/mL; MIC (MRSA (QA-11.6)): > 128 µg/mL; MIC [2, 10]: > 128 µg/mL
5 | COc1ccc2nccc(CCN3CCC(NC(=O)c4cn5cccc(C#N)c5n4)CC3)c2n1 [Compound 7, 8-Cyano-N-(1-(2-(6-methoxy-1,5-naphthyridin-4-yl)ethyl)piperidin-4-yl)imidazo[1,2-a]pyridine-2-carboxamide] | – | > 100 | 16 (≈ 35.1 µM) | – | 2.6 | – | – | – | > 100 | > 100 | – | 883 (≈ 1940 µM) | 281 | > 128 | – | > 100 | > 128 | – | PAMPA permeability classification [low/high] (in vitro; relative to reference drugs): int erm ediat e; MIC (E. coli (QA-11.7)): > 128 µg/mL; MIC (MRSA (QA-11.6)): > 128 µg/mL; MIC [2, 10]: > 128 µg/mL
6 | COc1ccc2nccc(CCN3CCC(NCc4ccc(Cl)cc4)CC3)c2n1 [Compound 13] | – | – | 0.25 (≈ 0.608 µM) | > 2.7 | 13.2 | 2 (≈ 4.87 µM) | 1 (≈ 2.43 µM) | 0.25 (≈ 0.608 µM) | – | – | – | 119 (≈ 290 µM) | 1.22 | 0.5 | 2 (≈ 4.87 µM) | – | – | 0.031 | –
7 | COc1ccc2nccc(CCN3CCC(NCc4ccc(Br)cc4)CC3)c2n1 [Compound 14] | – | – | – | > 2.7 | 31.5 | – | 1 (≈ 2.2 µM) | 0.0625 (≈ 0.137 µM) | – | – | – | 72 (≈ 158 µM) | 0.27 | 0.125 | 0.5 (≈ 1.1 µM) | – | 0.125 (≈ 0.274 µM) | 0.042 ± 0.003 | MIC (M. smegmatis; Mycolicibacterium smegmatis, read-out: MIC M. smegmatis): 0.125 µg/mL (≈ 0.274 µM)
8 | COc1ccc2nccc(CCN3CCC(NCc4ccc(I)cc4)CC3)c2n1 [Compound 15] | – | – | 0.015 (≈ 0.0299 µM) | > 2.7 | 39.8 | – | 1 (≈ 1.99 µM) | 0.0312 (≈ 0.0622 µM) | – | – | – | 184 (≈ 366 µM) | 0.16 | 0.078 | 0.015 (≈ 0.0299 µM) | – | 0.125 (≈ 0.249 µM) | 0.021 ± 0.001 | E. coli N43 MIC in molar (E. coli N43 (CGSC# 5583); E. coli CGSC# 5583, AcrA knockout strain): 0.16 µM
